Measured values: patent US12590062B2, “PD-1/PD-L1 inhibitors” (Gilead Sciences, Inc., priority 2017, dated 2026)

Experiments:
[1] = target: T1, interaction between the recombinant extracellular domain (ECD) of PD-1 and native cell-bound PD-L1 (Homo sapiens, UniProt Q9NZQ7); test: CHO/PD-L1 cell capture assay; type: cell-based; conditions: CHO cells overexpressing PD-L1, pre-incubated 1 hr with compound, captured on biotinylated Fc-PD-1 coated plates, 75 min at room temperature
T1 construct: expressed in transfected cells
T1 sequence (Q9NZQ7 19-290): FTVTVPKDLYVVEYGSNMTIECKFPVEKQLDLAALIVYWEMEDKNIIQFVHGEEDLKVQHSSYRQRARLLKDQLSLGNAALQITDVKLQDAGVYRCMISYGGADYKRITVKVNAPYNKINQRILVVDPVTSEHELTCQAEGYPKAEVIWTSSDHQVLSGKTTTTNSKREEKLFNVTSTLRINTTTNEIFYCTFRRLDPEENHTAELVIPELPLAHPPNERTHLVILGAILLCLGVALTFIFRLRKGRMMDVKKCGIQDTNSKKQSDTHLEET
Method in brief: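 EC50 values came from four-parameter fits of counts of Draq5-stained CHO-PD-L1 cells retained on plate-bound biotinylated Fc-PD-1 ECD, enumerated by high-content imaging. Cells in PBS pH 7.4 with EDTA and 2% BSA had 1 hr compound pre-incubation, then 75 min capture at room temperature.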

PD-L1 = target: T2, PD-L1 (Homo sapiens, UniProt Q9NZQ7); test: PD-L1/PD-L1 dimerization biochemical protein-protein interaction assay (ALPHA); type: binding; conditions: compound-induced PD-L1 dimerization, head prints '1 nM' (0.5 nM His-tagged PD-L1 and 0.5 nM FLAG-tagged PD-L1), read-out: AC50 PDL1 Dimer Alpha 1 nM
T2 construct: determine if they can specifically dimerize the extracellular domains of PD-L1
T2 sequence (Q9NZQ7 19-238 limits assumed): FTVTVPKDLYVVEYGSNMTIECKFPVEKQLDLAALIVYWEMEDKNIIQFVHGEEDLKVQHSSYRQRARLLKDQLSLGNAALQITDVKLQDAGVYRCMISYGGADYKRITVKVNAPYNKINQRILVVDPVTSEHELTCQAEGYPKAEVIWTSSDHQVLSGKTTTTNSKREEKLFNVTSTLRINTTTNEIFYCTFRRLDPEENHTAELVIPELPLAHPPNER
T2 sequence (Q9NZQ7 19-238 limits assumed): as above
Method in brief: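 After 2 h at 25 °C with compound, His- and FLAG-tagged PD-L1 ECDs (each 0.5 nM final; 25 mM Hepes pH 7.4, 150 mM NaCl) were detected by sequential anti-His acceptor and anti-FLAG donor bead incubations. Dose-response curves fitted to four-parameter equation for AC50.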

PD-1/PD-L1 interaction = target: T3, PD-1/PD-L1 interaction (Homo sapiens, UniProt Q9NZQ7); test: PD-1/PD-L1 NFAT reporter co-culture assay; type: cell-based; conditions: Jurkat PD-1 NFAT-luciferase cells co-cultured with aAPC-PD-L1 CHO cells, 6 hrs at 37° C.; read-out: EC50 NFAT Luciferase
T3 construct: expressed in transfected cells; host or cells: CHO cells (aAPC-PD-L1) co-cultured with Jurkat cells overexpressing PD-1 and an NFAT-luciferase reporter
T3 sequence (Q9NZQ7 19-290): as the sequence (Q9NZQ7 19-290) above
Method in brief: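 CHO aAPC-PD-L1 seeded overnight; PD-1/NFAT-luc Jurkat + cpd in RPMI 1640, 2% FBS added at once; 6 h, 37 °C; ONE-Glo luminescence; EC50, 4-parameter fit.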

EC50 [1] | AC50 (PD-L1) | EC50 (PD-1/PD-L1 interaction) | Compound
147 nM | ≥ 10000 nM | 74 nM | Cc1c(COc2nc(OCc3cc(C#N)cc(C#N)c3)c(CN[C@@H](CO)C(=O)O)cc2Cl)cccc1-c1cccc(COc2nc(OCc3cc(C#N)cc(C#N)c3)c(CN[C@@H](CO)C(=O)O)cc2Cl)c1C [Example 124, (2S,2′S)-2,2′-((((((2,2′-dimethyl-[1,1′-biphenyl]-3,3′-diyl)bis(methylene))bis(oxy))bis(5-chloro-2-((3,5-dicyanobenzyl)oxy)pyridine-6,3-diyl))bis(methylene))bis(azanediyl))bis(3-hydroxypropanoic acid)]
221 nM | 167 nM | 198 nM | Cc1c(COc2nc(OC[C@H]3CCC(=O)N3)c(CNCC(=O)O)cc2Br)cccc1-c1cccc(COc2nc(OC[C@H]3CCC(=O)N3)c(CNCC(=O)O)cc2Br)c1C [Example 129, 2,2′-((((((2,2′-dimethyl-[1,1′-biphenyl]-3,3′-diyl)bis(methylene))bis(oxy))bis(5-bromo-2-(((R)-5-oxopyrrolidin-2-yl)methoxy)pyridine-6,3-diyl))bis(methylene))bis(azanediyl))diacetic acid]
123 nM | 237 nM | 164 nM | Cc1c(COc2nc(OC[C@@H]3CCC(=O)N3)c(CNCC(=O)O)cc2Br)cccc1-c1cccc(COc2nc(OC[C@@H]3CCC(=O)N3)c(CNCC(=O)O)cc2Br)c1C [Example 130, 2,2′-((((((2,2′-dimethyl-[1,1′-biphenyl]-3,3′-diyl)bis(methylene))bis(oxy))bis(5-bromo-2-(((S)-5-oxopyrrolidin-2-yl)methoxy)pyridine-6,3-diyl))bis(methylene))bis(azanediyl))diacetic acid]
129 nM | 282 nM | 288 nM | Cc1c(COc2nc(OCCc3cncnc3)c(CNCC(=O)O)cc2Cl)cccc1-c1cccc(COc2nc(OCCc3cncnc3)c(CNCC(=O)O)cc2Cl)c1C [Example 133, 2,2′-((((((2,2′-dimethyl-[1,1′-biphenyl]-3,3′-diyl)bis(methylene))bis(oxy))bis(5-chloro-2-(2-(pyrimidin-5-yl)ethoxy)pyridine-6,3-diyl))bis(methylene))bis(azanediyl))diacetic acid]
221 nM | 250 nM | 812 nM | Cc1c(COc2nc(OCCC(=O)N(C)C)c(CNC[C@@H](O)CC(=O)O)cc2Br)cccc1-c1cccc(COc2nc(OCCC(=O)N(C)C)c(CNC[C@@H](O)CC(=O)O)cc2Br)c1C [Example 135, (3S,3′S)-4,4′-((((((2,2′-dimethyl-[1,1′-biphenyl]-3,3′-diyl)bis(methylene))bis(oxy))bis(5-bromo-2-(3-(dimethylamino)-3-oxopropoxy)pyridine-6,3-diyl))bis(methylene))bis(azanediyl))bis(3-hydroxybutanoic acid)]
184 nM | 334 nM | 2300 nM | Cc1c(COc2nc(OCCC(N)=O)c(CNCC(=O)O)cc2Cl)cccc1-c1cccc(COc2nc(OCCC(N)=O)c(CNCC(=O)O)cc2Cl)c1C [Example 146, 2,2′-((((((2,2′-dimethyl-[1,1′-biphenyl]-3,3′-diyl)bis(methylene))bis(oxy))bis(2-(3-amino-3-oxopropoxy)-5-chloropyridine-6,3-diyl))bis(methylene))bis(azanediyl))diacetic acid]
50.6 nM | ≥ 10000 nM | 139 nM | COc1nc(OCc2cccc(-c3cccc(COc4nc(OC)c(CNCCC(=O)O)cc4Cl)c3C)c2C)c(Cl)cc1CNCCC(=O)O [Example 172, 3,3′-((((((2,2′-dimethyl-[1,1′-biphenyl]-3,3′-diyl)bis(methylene))bis(oxy))bis(5-chloro-2-methoxypyridine-6,3-diyl))bis(methylene))bis(azanediyl))dipropionic acid]
69.1 nM | 260 nM | 141 nM | COc1nc(OCc2cccc(-c3cccc(COc4nc(OC)c(CNCCCC(=O)O)cc4Cl)c3C)c2C)c(Cl)cc1CNCCCC(=O)O [Example 183, 4,4′-((((((2,2′-dimethyl-[1,1′-biphenyl]-3,3′-diyl)bis(methylene))bis(oxy))bis(5-chloro-2-methoxypyridine-6,3-diyl))bis(methylene))bis(azanediyl))dibutyric acid]
31.2 nM | 267 nM | 197 nM | COc1nc(OCc2cccc(-c3cccc(COc4nc(OC)c(CNC[C@H](O)CC(=O)O)cc4Br)c3Cl)c2Cl)ccc1CNC[C@H](O)CC(=O)O [Example 192, (R)-4-(((6-((3′-(((3-Bromo-5-((((R)-3-carboxy-2-hydroxypropyl)amino)methyl)-6-methoxypyridin-2-yl)oxy)methyl)-2,2′-dichloro-[1,1′-biphenyl]-3-yl)methoxy)-2-methoxypyridin-3-yl)methyl)amino)-3-hydroxybutanoic acid]
13.1 nM | 70.5 nM | 73 nM | Cc1c(COc2cc(OCc3cncc(C#N)c3)c(CNC[C@@H](O)CC(=O)O)cc2Cl)cccc1-c1cccc(-c2ccc3c(cnn3CCNC[C@@H](O)CC(=O)O)c2)c1C [Example 209, (S)-4-((4-((3′-(1-(2-(((S)-3-carboxy-2-hydroxypropyl)amino)ethyl)-1H-indazol-5-yl)-2,2′-dimethyl-[1,1′-biphenyl]-3-yl)methoxy)-5-chloro-2-((5-cyanopyridin-3-yl)methoxy)benzyl)amino)-3-hydroxybutanoic acid]
45.6 nM | 81.2 nM | 304 nM | Cc1c(COc2cc(OCc3cncc(C#N)c3)c(CNC[C@@H](O)CC(=O)O)cc2Cl)cccc1-c1cccc(-c2ccc3sc(CNC[C@@H](O)CC(=O)O)cc3c2)c1C [Example 211]
142 nM | 314 nM | 331 nM | COc1nc(OCc2cccc(-c3cccc(COc4nc(OC)c(CN5CCC[C@H]5C(=O)O)cc4Cl)c3C)c2C)c(Cl)cc1CN1CCC[C@H]1C(=O)O [Example 232, (2′S)-(((((2,2′-dimethyl-[1,1′-biphenyl]-3,3′-diyl)bis(methylene))bis(oxy))bis(5-chloro-2-methoxypyridine-6,3-diyl))bis(methylene))di-L-proline]
27.7 nM | 109 nM | 260 nM | Cc1c(COc2cc(OCc3cncc(C#N)c3)c(CNC[C@@H](O)CC(=O)O)cc2Cl)cccc1-c1cccc(OCc2ccc(CNC[C@@H](O)CC(=O)O)cc2)c1C [Example 279, (S)-4-((4-(((3′-((4-((((S)-3-carboxy-2-hydroxypropyl)amino)methyl)-2-chloro-5-((5-cyanopyridin-3-yl)methoxy)phenoxy)methyl)-2,2′-dimethyl-[1,1′-biphenyl]-3-yl)oxy)methyl)benzyl)amino)-3-hydroxybutanoic acid]

Compound | EC50 [1] | AC50 (PD-L1) | EC50 (PD-1/PD-L1 interaction)
Cc1c(COc2nc(OCCCCC#N)c(CNC[C@@H](O)CC(=O)O)cc2Br)cccc1-c1cccc(COc2nc(OCCCCC#N)c(CNC[C@@H](O)CC(=O)O)cc2Br)c1C [Example 143, (3S,3′S)-4,4′-((((((2,2′-dimethyl-[1,1′-biphenyl]-3,3′-diyl)bis(methylene))bis(oxy))bis(5-bromo-2-(4-cyanobutoxy)pyridine-6,3-diyl))bis(methylene))bis(azanediyl))bis(3-hydroxybutanoic acid)] | 296 nM | 395 nM | 217 nM
